Consider two molecules from PMC12003248, “ERCC6L2 mitigates replication stress and promotes centromere stability” (Cell Reports, 2023).

What all share (type): cell-based, human
The test system of data set [1] is control and ERCC6L2^−/− cells. The experiment in a line: Nascent DNA degradation assay (DNA combing). The settings on record: 3 mM hydroxyurea, 4 h; IdU/CldU track ratio; N(tracks)>700. On the procedure:
Control and ERCC6L2^−/− cells were labeled with 100 μM CldU, followed by 100 μM IdU in the presence of 10 μM Polα inhibitor CD437. Each pulse lasted 40 min. Cells were then trypsinised and embedded in agarose plugs using a kit from Genomic Vision according to the manufacturer’s instructions. DNA was extracted and purified from the agarose plugs, and stretched onto silanised coverslips with the molecular combing system (Genomic Vision). CldU was detected with rat anti-BrdU antibody (Abcam, BU1/75) and Alexa Fluor 594 conjugated secondary antibody (Thermo Fisher Scientific). ldU was detected with mouse anti-BrdU antibody (Becton Dickinson, BD44) and Alexa Fluor 488 conjugated secondary antibody (Thermo Fisher Scientific). […] More than 1500 tracks were analyzed per condition.
For nascent DNA degradation assay, cells were sequentially incubated with 100 μM CldU and 100 μM IdU. […] More than 700 tracks were analyzed per condition. […]
Error bars represent standard errors from 3 independent experiments. […] U2OS cells were transfected with YFP-ERCC6L2 constructs and monitored by live cell imaging following laser induced DNA damage. […]
(F) Valida?on of siRNA against CTC1 and C20orf196. […] For BRCA1, RIF1, REV7, 53BP1, BLM and CtIP, cells were transfected as in F, and endogenous proteins were detected by speciﬁc an?bodies. […] Expression was detected by an?-FLAG or an?-GFP an?bodies, as indicated. […]

The test system of data set [2] is control and ERCC6L2^−/− U2OS cells. Description: Micronuclei formation. The settings on record: cells grown with damaging agents for 2 days; ERCC6L2^−/− vs control U2OS.
Source text: absence or presence of damaging agents for 2 days. CENPC and 53BP1 were used as centromeric and DSB markers, respec?vely. N(images) >140, N(cells)>50,000. (B) Quan?ﬁca?on of micronuclei subtypes in control and ERCC6L2-/- U2OS cells, as indicated. 53BP1 or γH2AX were used as DSB markers; CENP-C was used as a centromere marker; Telomeric repeat-binding factor 2-interac?ng protein 1 (RAP1) was used as a telomere marker. N(images)>400, N(cells)>30,000.
Data set [3] concerns pKAP1 (KAP1 S824). Description: pKAP1 levels. Particulars: 50 µg/ml phleomycin for 12 h; vs control cells. As for the experimental part:
(§1) 0.8 ControlERCC6L2ControlERCC6L2
(§2) 0.4 28 kDa short exposure […]
(§3) Figure S12. DNA damage-induced changes in control and ERCC6L2 -/- cells. Related to Figure 6.
(§4) (A) Box and whisker plots measuring average pRPA intensi?es in control and ERCC6L2-/- cells. Cells were either untreated, or exposed to 50 µg /ml phleomycin for 12 h, before ﬁxa?on and staining. N(images)>180, N(cells)>28,000. (B) Representa?ve images of phleomycin treated cells used for quan?ﬁca?ons in A. Shown are expressions of indicated proteins, with zoomed images of cells in coloured frames.
(§5) (C) Analysis of pRPA levels by western blot. Treatments were as in A. (D) Box and whisker plots measuring average pKAP1 intensi?es in control and ERCC6L2-/- cells. Cells were either untreated, or exposed to 50 µg /ml phleomycin for 12 h, before ﬁxa?on and staining.
N(images)>180, N(cells)>28,000. (E) Representa?ve images of phleomycin treated cells used for quan?ﬁca?ons in D. Shown are expressions of indicated proteins, with zoomed images of cells in coloured frames. (F) Analysis of pKAP1 levels by western blot. Treatments were as in D. (G) Box and whisker plots measuring KAP1 foci in control and ERCC6L2-/- cells. Cells were either untreated, or exposed to 50 µg /ml phleomycin for 12 h, before ﬁxa?on and staining. N(images)>180, N(cells)>28,000. B, E, H: Scale bar: 10 µm. A, D, G: Sta?s?cs […]

Data set [4] has as its system CENP-B. The experiment in a line: CENP-B intensities by QIBC after genotoxic stress. The settings on record: 1 h, 5 h recovery, N(cells)>30,000.
The subject of data set [5] is control and ERCC6L2^−/− U2OS cells. Description: Clonogenic survival assay. The settings on record: 11 days, 3 independent experiments, ERCC6L2^−/− vs control U2OS.
Procedure: Cells were seeded in 6-well plates (approximately 700 cells/well) and either left untreated or treated with the indicated concentrations of genotoxic agents. Cells were then grown for 11 days to allow colony formation. Colonies were stained with 5 mg/ml crystal violet (Sigma-Aldrich) solution in 25% methanol for 30 min. Pictures were taken using a Nikon D3200 camera and images were analyzed using FIJI software. FIJI’s ‘Analyze Particles’ function was used to quantify numbers of colonies. Survival was calculated relative to untreated cells. Each experiment was performed in technical triplicates, and data shown represent combined data from at least three independent experiments.
The subject of data set [6] is pRPA32. Description: pRPA levels (ssDNA marker). The settings on record: 50 µg/ml phleomycin for 12 h; vs control cells. As for the experimental part:
For quantitative analysis of pRPA, RAD51, γH2AX, and EdU foci, non-overlapping images were acquired using a 20x objective lens. Image analysis was performed using CellProfiler.[98] For quantification of TRF1-and CENP-C-positive micronuclei, random non-overlapping images were acquired, and Z-stacks were further collected for each micronucleus to examine the presence of TRF1 and CENP-C foci. […]
as §1, §2, §3, §4, §5
N(images)>180, N(cells)>28,000. […]

Consider `NC(=O)NO` [hydroxyurea], for which the “nascent DNA protection, control vs ERCC6L2^−/−” value in data set [1] is listed as “did not observe significant differences in nascent DNA protection”.
On to phleomycin, for which the “micronuclei formation in ERCC6L2-deficient cells” value in data set [2] is “increased frequency of micronuclei formation”. In data set [3], the “pKAP1 levels in treated ERCC6L2^−/− cells” value is recorded as “decreased levels of pKAP1”. Further, the “CENP-B intensities after 25 µg/ml phleomycin” value in data set [4] is given as “not aﬀected by DNA damage”. In addition, in data set [5], the “sensitivity of ERCC6L2-deficient cells” value is listed as “increased sensitivity”. Besides, the “pRPA levels in treated ERCC6L2^−/− cells” value in data set [6] is recorded as “increased levels of pRPA”.
